Laboratory results published in patent US10774053B2, “HIV protease inhibitors” (Gilead Sciences, Inc., priority 2017, dated 2020).

The compounds below were run on HIV-1 (IIIB) in MT-4 cells (assay: microbe, parasite or virus in culture). Details: Human immunodeficiency virus 1, IIIB, MT4, MT-4 cells, HIV-1; read-out: MT4 EC50.
Type: cell-based

Compound | EC50
CC(C)(C)C[C@]1(c2ccc(-c3ccccn3)cc2)NC(=N)N([C@H](COC(=O)NC(C)(C)C)c2ccc(Cl)c(-n3ncnc3C(F)F)c2)C1=O [Compound 191] | 0.00969 µM
CC(C)(C)C[C@]1(c2ccc(-c3cnn(C(F)F)c3)cc2)NC(=N)N([C@H](COC(=O)NC2(C(F)(F)F)CC2)c2cc(F)c(Cl)c(-n3ncnc3C(F)F)c2)C1=O [Compound 192] | 0.0619 µM
CC(C)(C)C[C@]1(c2ccc(-c3ccccn3)cc2)NC(=N)N([C@H](COC(=O)NC2(C(F)(F)F)CC2)c2cc(F)c(Cl)c(-n3ncnc3C(F)F)c2)C1=O [Compound 193] | 0.0883 µM
CC(C)(C)C[C@]1(c2ccc(-c3ccccn3)cc2F)NC(=N)N([C@H](COC(=O)NC2(C(F)(F)F)CC2)c2ccc(Cl)c(-n3ncnc3C(F)F)c2)C1=O [Compound 196] | 0.0127 µM
CC(C)(C)C[C@]1(c2ccc(-c3ncccn3)cc2F)NC(=N)N([C@H](COC(=O)NC2(C(F)(F)F)CC2)c2ccc(Cl)c(-n3ncnc3C(F)F)c2)C1=O [Compound 197] | 0.0112 µM
CC(C)(C)C[C@]1(c2ccc(-c3ncccn3)cc2F)NC(=N)N([C@H](COC(=O)NC(C)(C)C(F)(F)F)c2ccc(Cl)c(-n3ncnc3C(F)F)c2)C1=O [Compound 198] | 0.0115 µM
CC(C)(C)C[C@]1(c2ccc(-c3cncs3)cc2F)NC(=N)N([C@H](COC(=O)NC2(C(F)(F)F)CC2)c2ccc(Cl)c(-n3ncnc3C(F)F)c2)C1=O [Compound 199] | 0.0076 µM
Cc1ncsc1-c1ccc([C@@]2(CC(C)(C)C)NC(=N)N([C@H](COC(=O)NC3(C(F)(F)F)CC3)c3ccc(Cl)c(-n4ncnc4C(F)F)c3)C2=O)c(F)c1 [Compound 200] | 0.0262 µM
Cn1nccc1-c1ccc([C@@]2(CC(C)(C)C)NC(=N)N([C@H](COC(=O)NC3(C(F)(F)F)CC3)c3ccc(Cl)c(-n4ncnc4C(F)F)c3)C2=O)cc1 [Compound 205] | 0.0202 µM
Cn1ccc(-c2ccc([C@@]3(CC(C)(C)C)NC(=N)N([C@H](COC(=O)NC4(C(F)(F)F)CC4)c4ccc(Cl)c(-n5ncnc5C(F)F)c4)C3=O)cc2)n1 [Compound 206] | 0.00674 µM
CC(C)(C)C[C@]1(c2ccc(-c3cnn(C4CC4)c3)cc2)NC(=N)N([C@H](COC(=O)NC2(C(F)(F)F)CC2)c2ccc(Cl)c(-n3ncnc3C(F)F)c2)C1=O [Compound 207] | 0.0139 µM
CC(C)(C)C[C@]1(c2ccc(-c3cnn(C4CC4)c3)cc2F)NC(=N)N([C@H](COC(=O)NC2(C(F)(F)F)CC2)c2ccc(Cl)c(-n3ncnc3C(F)F)c2)C1=O [Compound 209] | 0.0147 µM
Cn1ccc(-c2ccc([C@@]3(CC(C)(C)C)NC(=N)N([C@H](COC(=O)NC4(C(F)(F)F)CC4)c4ccc(Cl)c(-n5ncnc5C(F)F)c4)C3=O)c(F)c2)n1 [Compound 210] | 0.00694 µM
CC(C)(C)C[C@]1(c2ccc(-c3cnn(C(F)F)c3)cc2)NC(=N)N([C@H](COC(=O)NC2CC2(F)F)c2ccc(Cl)c(-n3ncnc3C(F)F)c2)C1=O (stereo partly shown) [Compound 211] | 0.0108 µM
CC(C)(C)C[C@]1(c2ccc(-c3ccn(C4CC4)n3)cc2F)NC(=N)N([C@H](COC(=O)NC2(C(F)(F)F)CC2)c2ccc(Cl)c(-n3ncnc3C(F)F)c2)C1=O [Compound 215] | 0.0185 µM
Cc1cc(-c2ccc([C@@]3(CC(C)(C)C)NC(=N)N([C@H](COC(=O)NC4(C(F)(F)F)CC4)c4ccc(Cl)c(-n5ncnc5C(F)F)c4)C3=O)cc2)on1 [Compound 216] | 0.00974 µM
CC(C)(C)C[C@]1(c2ccc(-c3cnn(C(F)F)c3)cc2)NC(=N)N([C@H](COC(=O)NCC(F)F)c2ccc(Cl)c(-n3ncnc3C(F)F)c2)C1=O [Compound 219] | 0.0088 µM
CC(C)(C)C[C@]1(c2ccc(-c3cnn(C4CC4)c3)cc2)NC(=N)N([C@H](COC(=O)NCC(F)(F)F)c2ccc(Cl)c(-n3ncnc3C(F)F)c2)C1=O [Compound 221] | 0.0155 µM
CC(C)(C)C[C@]1(c2ccc(-c3cnn(C4CC4)n3)c(F)c2)NC(=N)N([C@H](COC(=O)NC2(C(F)(F)F)CC2)c2ccc(Cl)c(-n3ncnc3C(F)F)c2)C1=O [Compound 225] | 0.0174 µM
CC(C)(C)C[C@]1(c2ccc(-n3nccn3)cc2)NC(=N)N([C@H](COC(=O)NC2(C(F)(F)F)CC2)c2ccc(Cl)c(-n3ncnc3C(F)F)c2)C1=O [Compound 226] | 0.0106 µM
CC(C)(C)C[C@]1(c2ccc(-c3cnn(C4CC4)n3)c(F)c2F)NC(=N)N([C@H](COC(=O)NC2(C(F)(F)F)CC2)c2ccc(Cl)c(-n3ncnc3C(F)F)c2)C1=O [Compound 227] | 0.0254 µM
COc1ccc([C@@]2(CC(C)(C)C)NC(=N)N([C@H](COC(=O)NC3(C(F)(F)F)CC3)c3ccc(Cl)c(-n4ncnc4C(F)F)c3)C2=O)c(F)c1F [Compound 228] | 0.0143 µM
CC(C)(C)C[C@]1(c2ccc(-n3cncn3)cc2)NC(=N)N([C@H](COC(=O)NC2(C(F)(F)F)CC2)c2ccc(Cl)c(-n3ncnc3C(F)F)c2)C1=O [Compound 229] | 0.0276 µM
C[C@H](NC(=O)OC[C@H](c1ccc(Cl)c(-n2ncnc2C(F)F)c1)N1C(=N)N[C@](CC(C)(C)C)(c2ccc(-c3cnn(C4CC4)n3)cc2)C1=O)C(F)(F)F [Compound 230] | 0.00762 µM

Compound | EC50
CC(C)(C[C@]1(c2ccc(-c3cnn(C(F)F)c3)cc2)NC(=N)N([C@H](COC(=O)NC2(C(F)(F)F)CC2)c2ccc(Cl)c(-n3ncnc3C(F)F)c2)C1=O)C1CC1 [Compound 231] | 0.0122 µM
C[C@H](NC(=O)OC[C@H](c1ccc(Cl)c(-n2ncnc2C(F)F)c1)N1C(=N)N[C@](CC(C)(C)C)(c2ccc(-c3cn(C4CC4)nn3)cc2)C1=O)C(F)(F)F [Compound 233] | 0.0136 µM
C[C@H](NC(=O)OC[C@H](c1ccc(Cl)c(-n2ncnc2C(F)F)c1)N1C(=N)N[C@](CC(C)(C)C)(c2ccc(-c3cnn(C4CC4)c3)cc2)C1=O)C(F)(F)F [Compound 234] | 0.00928 µM
CC(C)(C)C[C@]1(c2ccc(-c3cnn(C(F)F)c3)cc2)NC(=N)N([C@H](COC(=O)NC2CC2)c2ccc(Cl)c(-n3cncn3)c2)C1=O [Compound 235] | 0.00961 µM
CC(C)(C)C[C@]1(c2ccc(-c3cnn(C(F)F)c3)cc2)NC(=N)N([C@H](COC(=O)NC2(C)CC2)c2ccc(Cl)c(-n3cncn3)c2)C1=O [Compound 237] | 0.00879 µM
Cc1ncn(-c2cc([C@@H](COC(=O)NC3(C)CC3)N3C(=N)N[C@](CC(C)(C)C)(c4ccc(-c5cnn(C(F)F)c5)cc4)C3=O)ccc2Cl)n1 [Compound 238] | 0.156 µM
CC(C)(C)C[C@]1(c2ccc(-c3cnn(C(F)F)c3)cc2)NC(=N)N([C@H](COC(=O)NC2(C)CC2)c2ccc(Cl)c(-n3cnc(C4CC4)n3)c2)C1=O [Compound 239] | 0.604 µM
CC(C)(C)C[C@]1(c2ccc(-c3cnn(C(F)F)c3)cc2)NC(=N)N([C@H](COC(=O)N2CC(F)(F)C2)c2ccc(Cl)c(-n3cncn3)c2)C1=O [Compound 240] | 0.00506 µM
CC(C)(C)C[C@]1(c2ccc(-c3cnn(C(F)F)c3)cc2)NC(=N)N([C@H](COC(=O)NC(C)(C)C)c2ccc(Cl)c(-n3cncn3)c2)C1=O [Compound 241] | 0.00836 µM
CC(C)(C)C[C@]1(c2ccc(-c3cnn(C4CC4)c3)cc2)NC(=N)N([C@H](COC(=O)NC2CC2)c2ccc(Cl)c(-n3cncn3)c2)C1=O [Compound 243] | 0.00911 µM
CC(C)(C)C[C@]1(c2ccc(-c3ncccn3)cc2)NC(=N)N([C@H](CO)c2ccc(Cl)c(-n3cncn3)c2)C1=O [Compound 245] | 0.239 µM
CC(C)(C)C[C@]1(c2ccc(-c3cnn(C(F)F)c3)cc2)NC(=N)N([C@H](CO)c2ccc(Cl)c(-n3cncn3)c2)C1=O [Compound 246] | 0.0843 µM
Cc1ncnn1-c1cc([C@@H](COC(=O)NC2(C)CC2)N2C(=N)N[C@](CC(C)(C)C)(c3ccc(-c4cnn(C(F)F)c4)cc3)C2=O)ccc1Cl [Compound 247] | 0.00751 µM
CC(C)(C)C[C@]1(c2ccc(-c3cnn(C(F)F)c3)cc2)NC(=N)N([C@H](COC(=O)NC23CC(C(F)(F)F)(C2)C3)c2ccc(Cl)c(-n3cncn3)c2)C1=O [Compound 248] | 0.0703 µM
CC(C)(C)C[C@]1(c2ccc(-c3cccc(=O)[nH]3)cc2)NC(=N)N([C@H](COC(=O)NC2(C(F)(F)F)CC2)c2ccc(Cl)c(-n3cncn3)c2)C1=O [Compound 249] | 0.325 µM
CC(C)C[C@]1(c2ccc(-c3cnn(C(F)F)c3)cc2)NC(=N)N([C@H](COC(=O)NC2(C(F)(F)F)CC2)c2ccc(Cl)c(-n3cncn3)c2)C1=O [Compound 250] | 0.0298 µM
CC(C)(C)C[C@]1(c2ccc(-c3cnn(C(F)F)c3)cc2)NC(=N)N([C@H](COC(=O)NC2(C)CC2)c2ccc(OC(F)(F)F)c(-n3cncn3)c2)C1=O [Compound 251] | 0.0857 µM
CC(C)(C)C[C@]1(c2ccc(-c3cnn(C(F)F)c3)cc2)NC(=N)N([C@H](COC(=O)NC2(C)CC2)c2ccc(Cl)c(-n3ncnc3C3CC3)c2)C1=O [Compound 252] | 0.0207 µM
CC(C)(C)C[C@]1(c2ccc(-c3cnn(C(F)F)c3)cc2)NC(=N)N([C@H](COC(=O)NC2(C(F)(F)F)CC2)c2ccc(Cl)c(-n3ncnc3C3CC3)c2)C1=O [Compound 253] | 0.0281 µM
Cc1ncnn1-c1cc([C@@H](COC(=O)NC2(C(F)F)CC2)N2C(=N)N[C@](CC(C)(C)C)(c3ccc(-c4cnn(C(F)F)c4)cc3)C2=O)ccc1Cl [Compound 254] | 0.018 µM
CC(C)(C)C[C@]1(c2ccc(-c3cnn(C(F)F)c3)cc2)NC(=N)N([C@H](COC(=O)NC2(C(F)(F)F)CC2)c2ccc(Cl)c(-n3cccn3)c2)C1=O [Compound 255] | 0.0227 µM
CC(C)(C)C[C@]1(c2cc(F)cc(F)c2)NC(=N)N([C@H](COC(=O)NC2(C)CC2)c2ccc(Cl)c(-n3cc(-c4ccccn4)cn3)c2)C1=O [Compound 256] | 0.554 µM
CC(C)(C)C[C@]1(c2cc(F)cc(F)c2)NC(=N)N([C@H](COC(=O)NC2(C)CC2)c2ccc(Cl)c(-n3cccn3)c2)C1=O [Compound 257] | 4.18 µM

Same assay, conditions: MT-4 cells, HIV-1; read-out: MT4 EC50

Compound | EC50
CC(C)(C)C[C@]1(c2ccc(-c3ccnn3C(F)F)cc2)NC(=N)N([C@H](COC(=O)NC2(C(F)(F)F)CC2)c2ccc(Cl)c(-n3ncnc3C(F)F)c2)C1=O [Compound 213] | 0.0255 µM
CC(C)(C)C[C@]1(c2ccc(-c3cn(C4CC4)nn3)cc2)NC(=N)N([C@H](COC(=O)NC2(C(F)(F)F)CC2)c2ccc(Cl)c(-n3ncnc3C(F)F)c2)C1=O [Compound 232] | 0.0182 µM
